Reference: ChEMBL document CHEMBL5725270, “Substituted imidazopyridazines” (2016)

Test: Time-Resolved Fluorescence Resonance Energy Transfer (TR-FRET) Assay: The human kinase Mps-1 phosphorylates a biotinylated substrate peptide. Detection of the phosphorylated product is achieved by time-resolved fluorescence resonance energy transfer (TR-FRET) from Europium-labelled anti-phospho-Serine/Threonine antibody as donor to streptavidin labelled with cross-linked allophycocyanin (SA-XLent) as acceptor. Compounds are tested for their inhibition of the kinase activity.N-terminally GST-tagged human full length recombinant Mps-1 kinase (purchased from Invitrogen, Karslruhe, Germany, cat. no PV4071) was used. […] The concentration of Mps-1 in the assay was adjusted to the activity of the enzyme lot and was chosen appropriate to have the assay in the linear range, typical enzyme concentrations were in the range of about 1 nM (final conc. in the 5 ul assay volume).

IC50 | Structure (SMILES)
0.3 nM | Cc1cc(-c2cnc3c(NCCC(F)(F)F)cc(C(C)(O)c4cccc(F)c4O)nn23)ccc1C(=O)NC1CC1 (configuration not stated)
0.8 nM | Cc1cc(-c2cnc3c(NCCC(F)(F)F)cc(C4(c5cc(F)ccc5F)CC4)nn23)ccc1C(=O)NC1CC1
0.3 nM | C=C(c1cccc(F)c1)c1cc(NCCC(F)(F)F)c2ncc(-c3ccc(C(=O)NC4CC4)c(C)c3)n2n1
0.6 nM | Cc1cc(-c2cnc3c(NCCC(F)(F)F)cc(C(=O)c4cccc(F)c4F)nn23)ccc1C(=O)NC1CC1
0.5 nM | C=C(c1ccc(OC)cc1)c1cc(NCCC(F)(F)F)c2ncc(-c3ccc(C(=O)NC4CC4)c(C)c3)n2n1
1.2 nM | COc1ccc(C(=O)c2cc(NCCC(F)(F)F)c3ncc(-c4ccc(C(=O)NC5CC5)c(C)c4)n3n2)cc1
0.6 nM | Cc1cc(-c2cnc3c(NCCC(F)(F)F)cc(C(=O)c4cc(F)ccc4F)nn23)ccc1C(=O)NC1CC1
0.9 nM | Cc1cc(-c2cnc3c(NCCC(F)(F)F)cc(C4(c5cccc(F)c5)CC4)nn23)ccc1C(=O)NC1CC1
0.4 nM | C=C(c1cc(NCCC(F)(F)F)c2ncc(-c3ccc(C(=O)NC4CC4)c(C)c3)n2n1)c1cc(F)ccc1O
0.4 nM | C=C(c1cc(NCCC(F)(F)F)c2ncc(-c3ccc(C(=O)NC4CC4)c(C)c3)n2n1)c1cccc(F)c1F
0.7 nM | Cc1cc(-c2cnc3c(NCCC(F)(F)F)cc(C(F)c4cccc(F)c4)nn23)ccc1C(=O)NC1CC1 (configuration not stated)
0.3 nM | Cc1cc(-c2cnc3c(NCCC(F)(F)F)cc(C(O)c4cc(F)ccc4F)nn23)ccc1C(=O)NC1CC1 (configuration not stated)
0.5 nM | COc1cccc(C(=O)c2cc(NCCC(F)(F)F)c3ncc(-c4ccc(C(=O)NC5CC5)c(C)c4)n3n2)c1
1.5 nM | Cc1cc(-c2cnc3c(NCCC(F)(F)F)cc(C(F)(F)c4cccc(F)c4F)nn23)ccc1C(=O)NC1CC1
0.6 nM | C=C(c1cc(NCCC(F)(F)F)c2ncc(-c3ccc(C(=O)NC4CC4)c(C)c3)n2n1)c1cc(F)ccc1F
0.8 nM | C=C(c1cccc(OC)c1)c1cc(NCCC(F)(F)F)c2ncc(-c3ccc(C(=O)NC4CC4)c(C)c3)n2n1
0.5 nM | Cc1cc(-c2cnc3c(NCCC(F)(F)F)cc(C(F)(F)c4cc(F)ccc4F)nn23)ccc1C(=O)NC1CC1
